Assay [1] has as its system c-GMP. Description: Induction of in vivo nitrate tolerance (cGMP in aorta isolated after 16 hour infusion). Further details: species or system rat. The conditions noted are these: in words. As for the experimental part:
For c-GMP levels and tolerance development, the rat's thoracic aorta was isolated after exposure to the tested compound in vivo, and measured as described above in the in vitro assays.
Male Sprague Dawley rats (220 to 250 grams) were housed under constant temperature and humidity conditions. Light was maintained at a 12/12 light dark cycle. Except for 12 hours before the experiment, when food fasting was initiated, all rats had free access to standard rat pellet diet and tap water. The animals were anesthetized by intraperitoneal injection of ketamine and xylazine combination (50 and 10 milligram per kilogram, respectively). […] The catheters were filled with normal saline solution containing 1000 IU/ml of heparin and plugged with a metal pin. Catheters were externalized to the back of the neck region and secured by a polyester felt disk.
After implantation, the rats were individually housed until they regained their preoperative weight and appeared healthy (3 to 4 days post-operation). At this time point (day 0), an osmotic mini-pump (Alza Corp., Palo Alto, Calif.) delivering constant volume (10 μl/hour) of vehicle or drug was connected to one of the intravenous catheters.
For inducing tolerance to the tested NO-donor according to the present invention, the animals received 200 μg/hour of the tested compound for 16 hours (short-term-induced tolerance). A similar number of animals were processed by the same surgical procedure and received the vehicle alone (10 μl/hour of a solution consisting of 30% ethanol and 30% propylene glycol in sterile distilled water for injection).
At the end of the infusion periods used for the development of tolerance (16 hour), the rats were anesthetized as described above, the two catheters were externalized and the delivering catheters were disconnected from the mini-pump. The abdomen was opened by midline incision and the thoracic aorta were isolated, washed and cleaned from the surrounding tissues. Strips of the treated aortas were pooled in chambers containing Krebs-Hanseliet buffer (10 ml), and exposed to 1 μM of the tested NO-donor (final concentration) for 120 seconds. The tissues were quickly collected and frozen in liquid nitrogen for cGMP measurement, described hereinabove.

Assay [2] has as its system isolated rat aorta. Description: In vitro induction of tolerance: vasorelaxation of aortic rings pre-exposed to the NO-releasing compound. The assay is classed as cell-based. Conditions: vasorelaxation in rings pre-treated with 0.44 mM of the compound versus control rings; in words. The protocol: Aortic rings were prepared as described hereinabove, and were exposed to 0.44 mM GTN (vehicle was water:ethanol:propyleneglycol at proportional ratio of 1:1:1) for 1 hour before CCRC construction, to thereby induce tolerance to nitroglycerine. At the end of the tolerance induction period, rings were thrice washed with the path buffer (Krebs-bicrbonate) every 15 minutes for the following hour and then CCRC for vasorelaxation on GTN-induced tolerance rings were constructed for GTN (pretreated versus untreated rings, FIG. 15), in order to verify the ability to induce and measure GTN tolerance induction in vitro
Attempted induction of tolerance to the NO-donating compounds of the present invention was performed under the same conditions as for GTN. Thus, in an exemplary experiment, rings were exposed to 0.44 mM solution of Pet-3 in the attempt to induce tolerance for Pet-3. CCRC were then measured for the vasorelaxing effect of Pet-3 on a group of rings which were pre-exposed to Pet-3 as to induce tolerance to Pet-3, and for an untreated control group. The above protocol was repeated with Pet-2, Pet-7, Pet-8, Pet-12, Pet-24, Pet-43, Pet-149 and Pet-152.

In assay [3] the test system is anesthetized hypertensive Sprague-Dawley male rats. Description: Hypotensive effects: mean arterial pressure after iv bolus. The class given is in vivo, rat. The conditions noted are these: rats pre-treated with phenylephrine, iv bolus doses; in words. As for the experimental part:
Mean arterial pressure (MAP) was monitored and determined during bolus infusion of Pet-2, Pet-3, Pet-7, Pet-8, Pet-12 and Pet-13. Briefly, polyethylene catheters (PE50) were inserted into the carotid artery and into the jugular vein of anesthetized hypertensive Sprague-Dawley male rats (200-300 grams). A blood pressure recorder was placed within the carotid artery. Phenylephrine (0.1 mg) was then injected and the mean arterial blood pressure (MABP) was monitored continuously until a stable baseline was reached. The hypotensive effects of intravenous (iv) bolus doses (0.1 mg of each tested compound) administered intravenously at the jugular vein in minimal volume of vehicle (0.2 ml per dose) were evaluated. Five minutes were allowed between each dose, during which the maximal decrease in MAP was recorded and a dose-response graph comparing the hypotensive effect of the compounds was constructed.

Assay [4] relates to c-GMP. Description: Cyclic-GMP measurement in aortic rat tissue (radioimmunoassay). The assay is classed as cell-based. The conditions noted are these: rat thoracic aorta, summary of Table 5; in words. As for the experimental part:
GTN (10^−6 M) was added to the chamber and, 1 minute after exposure to the drug, rings (usually 3-5) were taken, wrapped with aluminum foil and immediately frozen in liquid nitrogen for storage. Control sample group was treated with the vehicle solution only. At the time of analysis, rings were thawed, blotted over a dry gauzed and weighted. A known weight of tissue was homogenized in 2 ml ice-cold modified Hank's balanced salt solution containing (in gram/liter) NaCl 8; KCl 0.4; glucose 1; KH2PO4 0.06; Na2HPO4 0.047; Phenol red 0.017 and further containing 25 mM EDTA (disodium salt). The homogenate was centrifuged at 4000 g (force units) for 10 minutes at 2-4° C. and the supernatant was thereafter transferred into fresh pre-cooled test tube containing 1 ml of acetonitrile. The tubes were vortex mixed for a few seconds and subsequently centrifuged at 4000 g for 5 minutes at 2-4° C., to remove the precipitated protein. Each supernatant was transferred into a clean test tube and evaporated to dryness under a stream of nitrogen at 55° C. The dry residue was reconstituted with 10 volumes of Tris-EDTA buffer pH 7.5 (0.05 M Tris containing 4 mM EDTA). Aliquots of 100 μl of the reconstituted solution in duplicate were used for c-GMP measurements using Amersham RIA kit, as is described in Haj-Yehia & Benet [Pharmacology, 1995, 273, 1, pp. 94-100]. Standard curves were plotted with six concentrations (0, 0.5, 1, 2, 4 and 8 pmoles of c-GMP per tube).
The NO-tolerance effect of GTN and NO-donor compounds according to the present invention was measured by following the production of c-GMP in slices of thoracic aorta of rats. Thus, the production of c-GMP was measured as described in the methods section above for the reference NO-donor compound GTN, and for the NO-donors of the present invention Pet-2, Pet-3, Pet-7, Pet-8, Pet-10, Pet-12, Pet-24, Pet-59, Pet-147, Pet-149, Pet-152, Pet-154 and Pet-155.

These results are taken from patent US7968575B2, “Nitric oxide donors and uses thereof” (priority 2004, dated 2011).

Regarding `O=[N+]([O-])OCC(CO[N+](=O)[O-])O[N+](=O)[O-]` [GTN, glyceryl trinitrate, reference compound], the “level of cGMP following a repeated treatment in vivo” value in assay [1] (aorta of rats infused 200 μg/hour for 16 hours, then exposed to 1 μM compound for 120 seconds) is “decreased”. Moreover, the “tolerance induction in vivo” value in assay [1] (cGMP accumulation in isolated aorta of rats pre-treated in vivo with the compound) is reported as “tolerance inducing effect”. In addition, the “tolerance induction in vitro” value in assay [2] is on record as “tolerance induced”. In addition, in assay [3], the “hypotensive effect on MAP following successive administrations” value is “attenuation”. The “c-GMP level following a repeated treatment” value in assay [4] was “significantly reduced”.
